The source of these data is US20150174144A1, “TETRACYCLINE COMPOUNDS FOR TREATING NEURODEGENERATIVE DISORDERS” (PARATEK PHARMACEUTICALS, INC., priority 2012, published 2015).

For data set [1], the system named is ferric iron-induced lipid peroxidation among rat brain tissue. Put plainly: Ferric iron-induced lipid peroxidation in rat brain tissue. It is filed as biochemical. The procedure:
Tetracycline compounds were tested in an in vitro assay of ferric iron-induced lipid peroxidation among rat brain tissue.

A further data set can be described thus: Genotoxicity. The following applies: pre-clinical safety studies.
The subject of another data set is CYP450. As to the kind of experiment: CYP450 inhibition or induction. The following applies: pre-clinical ADME studies. It is filed as in vitro ADME.
Another data set has as its target hERG/ion channel (Homo sapiens, UniProt Q12809). Put plainly: hERG/ion channel assays. The following applies: pre-clinical safety studies. For orientation: The hERG channel carries a current that helps repolarise heart muscle cells.
Data set [2] in a line: Cardiovascular safety study in monkeys. Type of data set: in vivo.
Data set [3] can be described thus: Preliminary embryofetal DRF study in rats. It is filed as in vivo. The following applies: high dose of 250 mg/kg.
A short description of data set [4]: 14-day acute toxicity and 28-day toxicology study in rats. Type of data set: in vivo. As for the experimental part:
The compound was also shown to be negative in a GLP phototoxicity assay. […] Both 14-day acute toxicity and 28-day toxicology study were performed in rats with Compound 1 along with minocycline for comparison. Animals were administered daily oral doses from 15 to 150 mg/kg for up to 4 weeks followed by a recovery period.

A further data set has as its system bacterial ribosome. As to the kind of experiment: Transcription/translation (TnT) in vitro assay of bacterial protein synthesis. It is filed as biochemical. The procedure: The antibacterial activity of Compound 1 was evaluated against comparator compounds minocycline and doxycycline. Test compounds are considered to have antibacterial activity if they inhibit bacterial growth at test concentrations below 4 μM. […] Further, mechanistic evidence of their antibacterial activity was evaluated using the transcription/translation (TnT) in vitro assay which directly measures the bacterial cellular efficiency of protein synthesis with and without test compounds present.

The test system of data set [5] is focal cerebral ischemia (temporary MCA occlusion). As to the kind of experiment: Rat stroke model, 90 min temporary MCA occlusion. It is filed as in vivo, Male Wistar rats. The following applies: for Neurological score / Infarct volume (Means ± SD): temporary; for Infarct volume (Means ± SD): 24 hr after MCAO; for Effect on infarct volume: temporary occlusion.
The subject of data set [6] is Fmr1 KO mice and wild-type littermates. Put plainly: Elevated Plus Maze test, mouse model of Fragile X Syndrome. Type of data set: in vivo. The following applies: 10 mg/kg/d i.p. osmotic pump, 1 week. The procedure: (§1) The purpose of this study was to test Compound 1 for treating Fragile X Syndrome. This study utilized Fmr1 KO mice, an animal model of Fragile X Syndrome.
(§2) The Fmr1 KO mice (C57BL/6 background) were kindly provided the FRAXA Foundation. Mice were housed in groups of the same genotype in a temperature and humidity controlled room with a 12-h light-dark cycle (lights on 7 am to 7 pm). Testing was conducted during the light phase. Food and water were available ad libitum. Testing was conducted on Fmr1 KO mice and their wild-type littermates. They were housed in commercial plastic cages purchased in the UK. Experiments were conducted in line with the requirements of the UK Animals (Scientific Procedures) Act, 1986.
(§3) The dosing protocol used is shown below. Mice were dosed at 6-7 weeks by intraperitoneal (i.p.) infusion by osmotic pump (0.5 μl/hour) for 1 week. The solution of 0.9% saline was used as a vehicle, and 10 mice were dosed per each group.

For data set [7], the system named is Fmr1 KO2 mice. As to the kind of experiment: Marble burying test, mouse model of Fragile X Syndrome. The following applies: 10 mg/kg/d. Type of data set: in vivo. As for the experimental part: as §1, §2, §3
The test system of data set [8] is Fmr1 KO2 mice. As to the kind of experiment: Contextual fear conditioning, mouse model of Fragile X Syndrome. Type of data set: in vivo. The following applies: acute stress conditions. As for the experimental part:
as §1, §2, §3
Freezing as a species-specific response to fear was measured.

[9] abbreviates: 20 mg/kg i.v. at 30 min, 6 hr after MCAO.
[10] abbreviates: 40 mg/kg i.v. at 60 min, 6 hr after MCAO.
[11] abbreviates: 40 mg/kg i.v. at 3 hr, 8 hr after MCAO.

Sequence of hERG/ion channel (Q12809 whole entry): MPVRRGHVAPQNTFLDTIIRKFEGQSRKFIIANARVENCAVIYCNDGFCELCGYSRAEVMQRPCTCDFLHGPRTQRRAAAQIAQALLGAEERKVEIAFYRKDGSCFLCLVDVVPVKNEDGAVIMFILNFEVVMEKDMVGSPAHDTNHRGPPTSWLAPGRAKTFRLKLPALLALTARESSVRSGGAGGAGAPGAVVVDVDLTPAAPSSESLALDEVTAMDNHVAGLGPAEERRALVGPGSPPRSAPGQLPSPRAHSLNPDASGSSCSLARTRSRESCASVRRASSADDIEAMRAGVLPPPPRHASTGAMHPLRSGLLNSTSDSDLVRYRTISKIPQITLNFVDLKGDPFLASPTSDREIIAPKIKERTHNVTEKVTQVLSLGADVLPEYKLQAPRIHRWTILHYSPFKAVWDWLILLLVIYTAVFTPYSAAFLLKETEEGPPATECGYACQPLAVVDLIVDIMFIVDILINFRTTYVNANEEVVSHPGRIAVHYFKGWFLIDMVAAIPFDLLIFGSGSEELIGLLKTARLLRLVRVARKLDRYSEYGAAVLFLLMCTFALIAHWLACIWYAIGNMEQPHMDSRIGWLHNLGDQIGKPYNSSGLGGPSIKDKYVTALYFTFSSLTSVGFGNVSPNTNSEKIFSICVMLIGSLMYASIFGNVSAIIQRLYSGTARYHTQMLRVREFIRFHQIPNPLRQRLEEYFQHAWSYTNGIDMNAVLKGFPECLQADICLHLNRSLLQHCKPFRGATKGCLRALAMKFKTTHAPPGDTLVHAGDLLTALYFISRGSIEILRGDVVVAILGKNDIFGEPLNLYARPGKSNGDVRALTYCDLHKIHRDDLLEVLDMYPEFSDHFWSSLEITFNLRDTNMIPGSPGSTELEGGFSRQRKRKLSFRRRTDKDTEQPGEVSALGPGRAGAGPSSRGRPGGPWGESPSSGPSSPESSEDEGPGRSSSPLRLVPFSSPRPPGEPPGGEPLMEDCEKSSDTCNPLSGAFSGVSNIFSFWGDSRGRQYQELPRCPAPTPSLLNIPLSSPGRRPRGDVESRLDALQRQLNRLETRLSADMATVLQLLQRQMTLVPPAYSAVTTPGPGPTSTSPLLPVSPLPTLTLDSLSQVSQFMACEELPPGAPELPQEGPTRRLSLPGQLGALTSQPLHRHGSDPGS

For the compound `CCc1cc(N(C)C)c2c(c1O)C(=O)C1=C(O)[C@]3(O)C(=O)C(C(N)=O)=C(O)[C@@H](N(C)C)[C@@H]3C[C@@H]1C2` [Compound 1], the “Lipid peroxidation (% of Control)” value in data set [1] (1.0 μM) is listed as 92 % of Control; in data set [1] (10 μM), 68 % of Control; in data set [1] (100 μM), 56 % of Control. The Effects in genotoxicity result in “Genotoxicity” is on record as “no significant effects”. Further, in the data set on CYP450, the “Effects in CYP450 inhibition or induction” value is on record as “no significant effects”. Also, the “Effects in hERG/ion channel assays” value on hERG/ion channel is recorded as “no significant effects”. In addition, the Cardiovascular safety findings result in [2] is on record as “No treatment-related effects were observed”. Besides, in data set [3], the “Effects on fetal body weight” value is given as “only slight effects on fetal body weight”. In addition, the Thyroid tissue staining result in data set [4] (at comparable doses to minocycline) was “little or no thyroid tissue staining”. In addition, in data set [4] (daily oral doses from 15 to 150 mg/kg for up to 4 weeks), the Adverse effects entry is “Few adverse effects were observed at any dose”. Further, the “Protein Synthesis Inhibition (IC50)” value in the data set on bacterial ribosome was over 100 µg/mL. Besides, the results for the Neurological score in data set [5] (setting [9]), in [5] (setting [10]) and in [5] (setting [11]) were 1.5 ± 0.5, 1.3 ± 0.5 and 1.4 ± 0.5, respectively. Moreover, the “Infarct volume (Means ± SD)” value in data set [5] (setting [9]) worked out at 139.2 ± 32.2 mm3; in [5] (setting [10]), 125.9 ± 49.9 mm3; in data set [5] (setting [11]) it was 172.8 ± 45.3 mm3. Also, the “Effect on infarct volume” value is reported as “did not demonstrate an ability to reduce infarct volume” in [5] (treatment initiated three hours post occlusion) and “statistically significant reductions in infarct volume” in data set [5] (treatment started at 30 or 60 min after MCA occlusion). For the same compound, the “Elevated Plus Maze: time spent in the close arm, Mean time” value in data set [6] (Fmr1 KO mice) was determined as 259.100 min; in [6] (WT mice), 227.800 min. The “Marble burying deficit of Fmr1 KO2 mice” value in the data set on Fmr1 KO2 mice [7] is “significantly rescued”. For the same compound, the “Contextual fear conditioning, learning deficit (freezing)” value with Fmr1 KO2 mice [8] is given as “failed to fully rescue the learning deficit”.
